# Test results from patent publication US7772263B2, “Compounds for the treatment of inflammatory disorders” (Schering Corporation, priority 2006, dated 2010).
# Target: T1, purified catalytic domain of recombinant human TACE (rhTACEc) (Homo sapiens, UniProt P78536, N452Q/S266A)
# T1 construct: rhTACEc, Residue 215 to 477 with two mutation (S266A and N4520) and a 6×His tail; 6xHis (C); made in house; host or cells: baculovirus/Hi5 insect cells
# Assay: TACE kinetic assay, cleavage of internally quenched fluorescent peptide substrate SPDL-3
# Assay type: biochemical
# Settings: TACE; class letters A-D; read-out: Ki Rating
# T1 sequence (P78536 215-477 S266A/N452Q limits assumed): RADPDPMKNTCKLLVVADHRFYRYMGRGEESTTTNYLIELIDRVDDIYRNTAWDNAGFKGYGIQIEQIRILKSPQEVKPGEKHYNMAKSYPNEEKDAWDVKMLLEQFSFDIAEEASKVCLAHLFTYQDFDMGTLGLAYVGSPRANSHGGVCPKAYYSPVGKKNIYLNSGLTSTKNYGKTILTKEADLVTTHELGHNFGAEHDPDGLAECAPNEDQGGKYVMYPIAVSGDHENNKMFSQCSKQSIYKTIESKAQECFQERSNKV
row,SMILES,Ki [nM]
1,COc1ccc2c(c1)C(=O)N(C[C@@]1(C#Cc3ccc(OC4SC(=O)NC4=O)cc3)NC(=O)NC1=O)C2 (stereo partly shown) [Compound 1574],< 5
2,COc1ccc2c(c1)C(=O)N(C[C@@]1(C#Cc3ccc(C(C)=NO)nc3)NC(=O)NC1=O)C2 [Compound 1575],< 5
3,COc1ccc2c(c1)C(=O)N(C[C@@]1(C#Cc3ccc4c(c3)CCC43NC(=O)NC3=O)NC(=O)NC1=O)C2 (stereo partly shown) [Compound 1576],< 5
4,COc1ccc2c(c1)C(=O)N(C[C@@]1(C#Cc3ccc(C4(C5CC5)NC(=O)NC4=O)cc3)NC(=O)NC1=O)C2 (stereo partly shown) [Compound 1577],< 5
5,COc1ccc2c(c1)C(=O)N(C[C@@]1(C#Cc3ccc(C)[nH]c3=O)NC(=O)NC1=O)C2 [Compound 1578],< 5
6,COc1ccc2c(c1)C(=O)N(C[C@@]1(C#Cc3cnccc3OC)NC(=O)NC1=O)C2 [Compound 1579],< 5
7,COc1ccc2c(c1)C(=O)N(C[C@@]1(C#Cc3cccc(C4(C)NC(=O)NC4=O)c3)NC(=O)NC1=O)C2 (stereo partly shown) [Compound 1580],< 5
